Results published in paper PMC7501296, “Rapid and direct control of target protein levels with VHL-recruiting dTAG molecules” (Nature Communications, 2020).
Values joined by “and” are separate entries in the source; they are usually repeats but may differ in a detail not shown here. Equal values may be shown once.

Tests used:
Assay type in all cases: cell-based
[1] = test system: PATU-8902 LACZ-FKBP12^F36V clone; assay: Antiproliferation, PATU-8902 LACZ-FKBP12F36V clone, 3D-spheroid (CellTiter-Glo)
How it was run: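 Viability of cells grown as ultra-low adherent 3D-spheroids was determined with the CellTiter-Glo reagent (Promega). Luminescence was read on either an Envision 2104 plate reader (PerkinElmer) or a Fluostar Omega Reader (BMG Labtech). The resulting data were analyzed with GraphPad PRISM v8.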

[2] = test system: PATU-8902 FKBP12^F36V-KRAS^G12V; KRAS^-/- clone; assay: Antiproliferation, PATU-8902 FKBP12F36V-KRASG12V; KRAS-/- clone, 2D-monolayer (CellTiter-Glo)
[3] = target: T1, FKBP12^WT-Nluc (Homo sapiens, UniProt P62942); assay: FKBP12WT-Nluc dual luciferase assay (293FT); conditions: 293FT FKBP12WT-Nluc, 24 h
T1 construct: expressed in transfected cells; host or cells: 293FT
T1 sequence (P62942 2-108 limits assumed): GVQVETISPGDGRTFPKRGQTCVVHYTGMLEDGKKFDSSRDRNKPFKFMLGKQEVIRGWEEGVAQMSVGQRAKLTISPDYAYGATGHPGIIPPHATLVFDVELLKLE
How it was run: (§1)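 293FT cells expressing FKBP12^WT-Nluc or FKBP12^F36V-Nluc with Fluc were treated with compound for 24 h at 37 °C. Fluc, then Nluc, luminescence was read with Dual-Glo reagents. Values are DMSO-normalised Nluc/Fluc ratios.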

[4] = target: T2, FKBP12^F36V-Nluc (Homo sapiens, UniProt P62942, F37V); assay: FKBP12F36V-Nluc dual luciferase assay (293FT); conditions: 293FT FKBP12F36V-Nluc, 24 h
T2 construct: expressed in transfected cells; host or cells: 293FT
T2 sequence (P62942 2-108 F37V limits assumed): as the sequence (P62942 2-108 limits assumed) above, with F36V counted along it
How it was run: as §1

[5] = test system: PATU-8902 LACZ-FKBP12^F36V clone; assay: Antiproliferation, PATU-8902 LACZ-FKBP12F36V clone, 2D-monolayer (CellTiter-Glo)
How it was run: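 Viability of cells grown as 2D-adherent monolayers was determined with the CellTiter-Glo luminescent reagent (Promega). Luminescence signals were read on either an Envision 2104 plate reader (PerkinElmer) or a Fluostar Omega Reader (BMG Labtech), and the resulting data were processed and analyzed in GraphPad PRISM v8 software.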

[6] = log10[compound] (M) -5.69897, replicate values
[7] = log10[compound] (M) -6.19897, replicate values
[8] = log10[compound] (M) -6.69897, replicate values
[9] = log10[compound] (M) -7.19897, replicate values
[10] = log10[compound] (M) -7.69897, replicate values
[11] = log10[compound] (M) -8.19897, replicate values
[12] = log10[compound] (M) -8.69897, replicate values
[13] = log10[compound] (M) -9.19897, replicate values
[14] = log10[compound] (M) -9.69897, replicate values
[15] = log10[compound] (M) -10.199, replicate values
[16] = log10[compound] (M) -5.30103, single replicates
[17] = log10[compound] (M) -5.80103, single replicates
[18] = log10[compound] (M) -6.30103, single replicates
[19] = log10[compound] (M) -6.80103, single replicates
[20] = log10[compound] (M) -7.30103, single replicates
[21] = log10[compound] (M) -7.80103, single replicates
[22] = log10[compound] (M) -8.30103, single replicates
[23] = log10[compound] (M) -8.80103, single replicates
[24] = log10[compound] (M) -9.30103, single replicates
[25] = log10[compound] (M) -9.80103, single replicates

- DMSO-normalized ratio of Nluc/Fluc signal [4, 17]: 7.24 and 7.457 and 10.3426 and 8.644
- DMSO-normalized ratio of Nluc/Fluc signal [4, 18]: 8.366 and 8.818 and 6.862 and 6.126
- DMSO-normalized ratio of Nluc/Fluc signal [4, 19]: 7.33 and 5.168 and 6.329 and 6.447
- DMSO-normalized ratio of Nluc/Fluc signal [4, 20]: 10.0232 and 16.06 and 10.9144 and 8.614
Compound: CC[C@H](C(=O)N1CCCC[C@H]1C(=O)O[C@H](CCc1ccc(OC)c(OC)c1)c1ccccc1OCC(=O)NCCCCCCOc1cccc2c1C(=O)N(C1CCC(=O)NC1=O)C2=O)c1cc(OC)c(OC)c(OC)c1 (some centres unmarked) [dTAG-13]
- DMSO-normalized antiproliferation [1, 6]: 83.5347 and 77.755 and 106.784 and 100.802
- DMSO-normalized antiproliferation [1, 7]: 108.447 and 95.2018 and 93.9194 and 111.801
- DMSO-normalized antiproliferation [1, 8]: 105.932 and 113.702 and 105.116 and 107.515
- DMSO-normalized antiproliferation [1, 9]: 104.318 and 154.981 and 104.434 and 95.3632
- DMSO-normalized antiproliferation [1, 10]: 98.1432 and 118.54 and 142.668 and 106.77
- DMSO-normalized antiproliferation [1, 11]: 105.712 and 98.6185 and 105.909 and 92.2738
- DMSO-normalized antiproliferation [1, 12]: 108.958 and 119.361 and 97.2958 and 103.25
- DMSO-normalized antiproliferation [1, 13]: 89.1127 and 99.6498 and 108.86 and 111.989
- DMSO-normalized antiproliferation [1, 14]: 97.9056 and 108.178 and 110.59 and 112.891
- DMSO-normalized antiproliferation [1, 15]: 91.8389 and 92.6594 and 105.927 and 94.166
- DMSO-normalized antiproliferation [2, 6]: 10.9257 and 6.898 and 8.446 and 8.371
- DMSO-normalized antiproliferation [2, 7]: 11.932 and 10.4461 and 13.2552 and 12.7525
- DMSO-normalized antiproliferation [2, 8]: 9.655 and 9.596 and 10.3089 and 13.0861
- DMSO-normalized antiproliferation [2, 9]: 15.4438 and 14.4907 and 17.4502 and 15.1305
- DMSO-normalized antiproliferation [2, 10]: 47.914 and 33.2029 and 20.7399 and 31.0479
- DMSO-normalized antiproliferation [2, 11]: 58.9433 and 77.5971 and 44.7261 and 57.0103
- DMSO-normalized antiproliferation [2, 12]: 103.967 and 74.9703 and 94.8172 and 78.6857
- DMSO-normalized antiproliferation [2, 13]: 94.4313 and 115.825 and 99.9239 and 85.5403
- DMSO-normalized antiproliferation [2, 14]: 101.606 and 85.9324 and 94.5986 and 110.248
- DMSO-normalized antiproliferation [2, 15]: 88.9654 and 100.345 and 66.0988 and 85.3394
- DMSO-normalized ratio of Nluc/Fluc signal [3, 16]: 68.0018 and 52.1082 and 49.2679 and 67.0893
- DMSO-normalized ratio of Nluc/Fluc signal [3, 17]: 39.4179 and 40.0508 and 57.6875 and 62.3631
- DMSO-normalized ratio of Nluc/Fluc signal [3, 18]: 61.6189 and 51.8679 and 71.8125 and 45.1167
- DMSO-normalized ratio of Nluc/Fluc signal [3, 19]: 68.675 and 79.0108 and 77.6288 and 57.0488
- DMSO-normalized ratio of Nluc/Fluc signal [3, 20]: 95.7266 and 46.8613 and 87.0104 and 66.427
- DMSO-normalized ratio of Nluc/Fluc signal [3, 21]: 86.0033 and 61.1842 and 69.3744 and 83.8873
- DMSO-normalized ratio of Nluc/Fluc signal [3, 22]: 94.8586 and 72.3429 and 122.034 and 94.0336
- DMSO-normalized ratio of Nluc/Fluc signal [3, 23]: 101.052 and 65.5195 and 71.6364 and 55.6566
- DMSO-normalized ratio of Nluc/Fluc signal [3, 24]: 113.35 and 121.354 and 97.4549 and 93.7336
- DMSO-normalized ratio of Nluc/Fluc signal [3, 25]: 115.063 and 75.6978 and 95.0976 and 66.8915
- DMSO-normalized ratio of Nluc/Fluc signal [4, 16]: 16.9532 and 13.2908 and 14.9671 and 13.7454
- DMSO-normalized ratio of Nluc/Fluc signal [4, 21]: 17.0708 and 14.82 and 12.6407 and 10.0196
- DMSO-normalized ratio of Nluc/Fluc signal [4, 22]: 27.5948 and 22.2337 and 28.8782 and 22.7323
- DMSO-normalized ratio of Nluc/Fluc signal [4, 23]: 41.1668 and 39.5241 and 40.8834 and 34.8862
- DMSO-normalized ratio of Nluc/Fluc signal [4, 24]: 85.0231 and 74.0396 and 80.0349 and 60.0307
- DMSO-normalized ratio of Nluc/Fluc signal [4, 25]: 71.5411 and 59.8417 and 77.3242 and 60.4301
- DMSO-normalized antiproliferation [5, 6]: 79.0923 and 75.109 and 80.3774 and 113.638
- DMSO-normalized antiproliferation [5, 7]: 118.691 and 93.7383 and 99.9076 and 98.4249
- DMSO-normalized antiproliferation [5, 8]: 98.3156 and 96.4487 and 164.194 and 141.704
- DMSO-normalized antiproliferation [5, 9]: 94.7264 and 123.324 and 123.729 and 139.928
- DMSO-normalized antiproliferation [5, 10]: 115.53 and 113.276 and 121.811 and 92.6376
- DMSO-normalized antiproliferation [5, 11]: 99.0586 and 98.4337 and 106.76 and 114.872
- DMSO-normalized antiproliferation [5, 12]: 84.0085 and 109.147 and 95.5423 and 106.301
- DMSO-normalized antiproliferation [5, 13]: 117.815 and 105.751 and 92.5029 and 116.86
- DMSO-normalized antiproliferation [5, 14]: 127.696 and 110.786 and 93.8321 and 122.663
- DMSO-normalized antiproliferation [5, 15]: 105.1 and 122.023 and 107.287 and 98.2283
